By melting point is commonly meant the temperature of the solid-liquid transition.

Data set [1] has as its target T1, human PPARγ1 (Homo sapiens, UniProt P37231).
T1 construct: expressed in transfected cells; host or cells: HEK-293
T1 sequence (P37231 238-503 limits assumed): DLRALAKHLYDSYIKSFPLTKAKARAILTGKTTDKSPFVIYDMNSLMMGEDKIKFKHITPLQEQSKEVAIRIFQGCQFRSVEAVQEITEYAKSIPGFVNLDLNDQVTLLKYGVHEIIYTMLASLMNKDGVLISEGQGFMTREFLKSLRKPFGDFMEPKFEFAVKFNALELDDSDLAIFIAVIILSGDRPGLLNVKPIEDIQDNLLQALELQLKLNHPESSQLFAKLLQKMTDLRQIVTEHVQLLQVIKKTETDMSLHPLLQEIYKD
The data set is described as follows: in vitro PPARγ transactivation (GAL4-LBD luciferase reporter in HEK-293 cells). It counts as cell-based. The text has this: The following procedure was used for in vitro determination of PPARα, γ and δ transactivation.
(§1) The ligand binding domain of human PPARγ1, PPARα or PPARδ was fused to the C-terminal end of DNA binding domain of yeast transcription factor GAL4 in eukaryotic expression vector. Using SuperFect (Qiagen), HEK-293 cells were transfected with this plasmid and a reporter plasmid harboring the luciferase gene driven under the control of 5 tandem GLA4 response elements. In some experiments, pAdVantage vector (Promega) was used to enhance luciferase expression. Compounds were added approximately 48 hours after transfection at various concentrations and incubated overnight. The cells were lysed and the luciferase activity was measured using the LucLite kit in Top Count (Packard). Luciferase activity was expressed as fold activation relative to untreated cells in the same experiment.

Data set [2] has as its target T2, human PPARα (Homo sapiens, UniProt Q07869).
T2 construct: expressed in transfected cells; host or cells: HEK-293
T2 sequence (Q07869 239-466 limits assumed): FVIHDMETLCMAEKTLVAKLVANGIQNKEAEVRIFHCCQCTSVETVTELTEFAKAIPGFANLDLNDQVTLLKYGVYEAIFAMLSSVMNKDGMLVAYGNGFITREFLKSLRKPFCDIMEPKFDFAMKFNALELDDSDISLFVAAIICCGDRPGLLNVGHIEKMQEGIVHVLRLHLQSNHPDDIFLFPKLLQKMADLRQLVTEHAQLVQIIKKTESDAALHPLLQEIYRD
The data set is described as follows: in vitro PPARα transactivation (GAL4-LBD luciferase reporter in HEK-293 cells). The class given is cell-based.
From the text: Generally, suitable PPAR agonists are believed to be useful for attenuating and/or treatment of diabetic dyslipidemia, metabolic syndrome, diabetes, cardiovascular disease, and obesity. The following procedure was used for in vitro determination of PPARα, γ and δ transactivation.
as §1
(In general: In a reporter assay the amount or activity of a reporter protein is the signal.)

In data set [3] the test system is Male Swiss albino mice. The data set is described as follows: plasma triglyceride lowering in Swiss albino mice. The class given is in vivo. As to conditions: plasma triglycerides. On the procedure:
Male Swiss albino mice (SAM) were obtained from National Institute Nutrition (NIN, Hyderabad, India) and housed in Dr. Reddy's Laboratories Ltd (DRL) animal house. All these animals were maintained under 12 hour light and dark cycle at 25±1° C. Animals were given standard laboratory chow (NIN, Hyderabad, India) and water, ad libitum. Mice of 20-25 grams body weight range were used. See Olivier, et al., Atherosclerosis, 1988, 70:107-114, incorporated herein by reference in its entirety. The test compounds were administered orally to mice at the doses shown in the following in table for 6 days. […] After centrifugation, plasma was separated for plasma triglyceride and total cholesterol measurement. See Wieland, Methods of Enzymatic Analysis, Bergermeyer, ed., 1963, 211-214; Trinder, Ann. Clin. Biochenz., 1969, 6:24-27, incorporated herein by reference in their entireties. Measurement of cholesterol and plasma triglyceride was done using a […] autoanalyser (Merck). The percent reductions in plasma triglycerides (TG)/total cholesterol were calculated according to the following formula: [formula] OC=Zero day control group value OT=Zero day treated group value TC=Test day control group value TT=Test day treated group value.

Data set [4] concerns hypercholesterolemic Male Sprague Dawley rats. The data set is described as follows: lipid lowering in hypercholesterolemic Sprague Dawley rats. It counts as in vivo. As to conditions: hypercholesterolemic SD rats, 3 mg/kg orally for 3 days. On the procedure:
Male Sprague Dawley rats (NIN stock) were bred in DRL animal house. Animals were maintained under 12 hour light and dark cycle at 25±1° C. Rats of 180-200 gram body weight range were used for the experiment. Animals were made hypercholesterolemic by feeding 2% cholesterol and 1% sodium cholate mixed with standard laboratory chow (NIN) for 6 days. Throughout the experimental period the animals were maintained on the same diet. Control rats were treated with vehicle alone (0.25% CMC; 10 ml/kg). Blood samples were collected in fed state 1 hour after drug administration on 0 and 3 days of treatment from the retro-orbital sinus through heparinized capillary tubes containing EDTA. After centrifugation, plasma sample was separated for total cholesterol, HDL and plasma triglyceride measurement. Measurement of total cholesterol, HDL and plasma triglyceride was done using a Vitalab Selectra autoanalyser (Merck). HDL was measured using a commercial kit. LDL and VLDL cholesterol were calculated from the data obtained for total cholesterol, HDL and plasma triglyceride.
The percent reductions in plasma triglycerides (TG)/total cholesterol (TC) were calculated as described in Example 55. The levels of LDL and VLDL cholesterol were calculated according to the following formulas: LDL cholesterol in mg/dl=[Total cholesterol−HDL cholesterol−Triglyceride/5] VLDL cholesterol in mg/dl=[Total cholesterol−HDL cholesterol−LDL cholesterol]

Several values for one entry are separate records, joined by “and”; a condition that tells them apart may be missing. Equal entries are not always repeated.

`CCOC(=O)C1(Oc2ccc(OCc3cc(-c4ccccc4)no3)cc2)CCCC1` [Example 2] gave a melting point of 83 to 85 °C. The “PPARγ luciferase fold activation relative to untreated cells” value in data set [1] (1 μM) was determined as 1.4. Also, the “PPARγ luciferase fold activation relative to untreated cells” value in data set [1] (10 μM) was determined as 2.4. The “PPARγ luciferase fold activation relative to untreated cells” value in data set [1] (50 μM) is 2.4. Also, in data set [2] (1 μM), the “PPARα luciferase fold activation relative to untreated cells” value is 1.2. Moreover, the “PPARα luciferase fold activation relative to untreated cells” value in data set [2] (10 μM) came out at 1.0. Further, the “PPARα luciferase fold activation relative to untreated cells” value in data set [2] (50 μM) was found to be 1.0.
Consider `CCC(C)(Oc1ccc(OCc2cc(-c3ccc(OCc4ccccc4)cc3)no2)cc1)C(=O)O` (stereo not drawn) [Example 3], for which the melting point is 132 to 134 °C.
The same measure, in the same setting: then `CCC(C)(Oc1ccc(OCc2cc(-c3ccc(O)cc3)no2)cc1)C(=O)O` (stereo not drawn) [Example 4], with 142 to 144 °C.
On to `CCC(C)(Oc1ccc(OCc2cc(-c3ccccc3)no2)cc1)C(=O)O` (stereo not drawn) [Example 8], for which the melting point lay within 70 to 74 °C. Besides, in data set [1] (1 μM), the “PPARγ luciferase fold activation relative to untreated cells” value was determined as 0.5. Besides, the “PPARγ luciferase fold activation relative to untreated cells” value in data set [1] (10 μM) was 1.2. The “PPARγ luciferase fold activation relative to untreated cells” value in data set [1] (50 μM) came out at 4.1. In data set [2] (1 μM), the “PPARα luciferase fold activation relative to untreated cells” value was 1.3. For the same compound, the “PPARα luciferase fold activation relative to untreated cells” value in data set [2] (10 μM) amounted to 2.6. Moreover, the “PPARα luciferase fold activation relative to untreated cells” value in data set [2] (50 μM) is reported as 3.5. In addition, in data set [3] (3 mg/kg orally for 6 days), the “% reduction in TG” value was determined as 52%.
Compound `O=C(O)C1(Oc2ccc(OCc3cc(-c4ccccc4)no3)cc2)CCCC1` [Example 9] had a melting point of 135 to 137 °C. In addition, the “PPARγ luciferase fold activation relative to untreated cells” value in data set [1] (1 μM) amounted to 1.2. In data set [1] (10 μM), the “PPARγ luciferase fold activation relative to untreated cells” value was 0.9. The “PPARγ luciferase fold activation relative to untreated cells” value in data set [1] (50 μM) was 2.4. Further, the “PPARα luciferase fold activation relative to untreated cells” value in data set [2] (1 μM) is 0.8. For the same compound, in data set [2] (10 μM), the “PPARα luciferase fold activation relative to untreated cells” value is 1.2. Further, in data set [2] (50 μM), the “PPARα luciferase fold activation relative to untreated cells” value is on record as 1.7.
`CC(C)(Oc1ccc(OCc2cc(-c3ccc(C(F)(F)F)cc3)no2)cc1)C(=O)O` [Example 12] registered a melting point of 166 to 168 °C.
`Cc1cc(SCc2cc(-c3ccc(C(F)(F)F)cc3)no2)ccc1OC(C)(C)C(=O)O` [Example 13] came in with a melting point of 106 to 108 °C.
The same measure, in the same setting: then `CC(C)(Sc1ccc(OCc2cc(-c3ccc(C(F)(F)F)cc3)no2)cc1)C(=O)O` [Example 14], with 120 to 122 °C; and `CC[C@@](C)(Oc1ccc(OCCCc2cc(-c3ccccc3)no2)cc1)C(=O)O` [Example 15], with 105 to 108 °C; and `CC[C@](C)(Oc1ccc(OCCCc2cc(-c3ccccc3)no2)cc1)C(=O)O` [Example 16], with 121 to 122 °C.
For `CC(C)(Oc1ccc(OCc2cc(-c3ccc(-c4ccccc4)cc3)no2)cc1)C(=O)O` [Example 18], the melting point fell in the range of 168 to 170 °C.
Same read-out and setting: then `CCC(C)(Oc1ccc(OCc2cc(-c3ccc(-c4ccccc4)cc3)no2)cc1)C(=O)O` (stereo not drawn) [Example 19], with 188 to 190 °C.
Take `CCC(C)(Oc1ccc(OC/C=C/c2cc(-c3ccccc3)no2)cc1)C(=O)O` (stereo not drawn) [Example 20]: the melting point was 118 to 120 °C.
`CCC(C)(Oc1ccc(OCCCc2cc(-c3ccc(C(F)(F)F)cc3)no2)cc1)C(=O)O` (stereo not drawn) [Example 21] returned a melting point of 110 to 112 °C.
Still for that read-out and setting: then `CCC(C)(Oc1ccc(OCc2cc(-c3ccc([N+](=O)[O-])cc3)no2)cc1)C(=O)O` (stereo not drawn) [Example 22], with 128 to 130 °C; and `CCC(C)(Oc1ccc(OCc2cc(-c3ccc(F)cc3)no2)cc1)C(=O)O` (stereo not drawn) [Example 23], with 118 to 120 °C.
On to `CC[C@@](C)(Oc1ccc(OCc2cc(-c3ccc(OS(C)(=O)=O)cc3)no2)cc1)C(=O)O` [Example 26], for which the results for the “PPARγ luciferase fold activation relative to untreated cells” value in data set [1] (1 μM), in data set [1] (10 μM) and in data set [1] (50 μM) were 0.1, 1.0 and 5.3, respectively. The figures for the “PPARα luciferase fold activation relative to untreated cells” value in data set [2] (1 μM), in data set [2] (10 μM) and in data set [2] (50 μM) were 1.8, 5.7 and 5.8, respectively. The “% reduction in TG” value in data set [3] (1 mg/kg orally for 6 days) was 50%.
Take `CCC(C)(Oc1ccc(OCc2cc(-c3ccc(C)cc3)no2)cc1)C(=O)OC` (stereo not drawn) [Example 29, 2-Methyl-2-[4-(3-(4-methylphenyl)isoxazol-5-ylmethoxy)phenoxy]butyric acid, methyl ester]: the melting point is 100 to 102 °C.
Consider `CCC(C)(Oc1ccc(OCc2cc(-c3ccc(C)cc3)no2)cc1)C(=O)O` (stereo not drawn) [Example 30, 2-Methyl-2-[4-(3-(4-methylphenyl)isoxazol-5-ylmethoxy)phenoxy]butyric acid], for which the melting point is 138 to 140 °C.
`CCC(C)(Oc1ccc(OCCCc2cc(-c3ccc(C)cc3)no2)cc1)C(=O)O` (stereo not drawn) [Example 32, 2-Methyl-2-{4-[3-(3-(4-methylphenyl)isoxazol-5-yl)propoxy]phenoxy}butyric acid]: the melting point was 98 to 100 °C.
On the same count and under the same terms, then `CCC(C)(Oc1ccc(OCCCc2cc(-c3ccc(Cl)cc3)no2)cc1)C(=O)O` (stereo not drawn) [Example 34, 2-Methyl-2-{4-[3-(3-(4-chlorophenyl)isoxazol-5-yl)propoxy]phenoxy}butyric acid], with 130 to 132 °C.
As to `O=C(O)[C@]1(Cc2ccc(OCc3cc(-c4ccc(C(F)(F)F)cc4)no3)cc2)CCCO1` [Example 37], the “% Reduction TG” value in data set [4] (plasma triglycerides) is recorded as 68%. In addition, in data set [4] (total cholesterol), the “% Reduction TC” value came to 69%. Further, the “% Reduction LDL” value in data set [4] (LDL cholesterol calculated from TC, HDL, TG) is reported as 75%. This compound yielded an HDL % increase in data set [4] (values represent % increase) of 138%. Also, the “% reduction in TG” value in data set [3] (3 mg/kg orally for 6 days) is listed as 69%.
For the compound `O=C(O)C1(Cc2ccc(OCc3cc(-c4ccccc4)no3)cc2)CCCO1` (stereo not drawn) [Example 39], the “PPARγ luciferase fold activation relative to untreated cells” value in data set [1] (1 μM) stood at 1.8; in data set [1] (10 μM), 3.9; in data set [1] (50 μM), 9.0. The figures for the “PPARα luciferase fold activation relative to untreated cells” value in data set [2] (1 μM), in data set [2] (10 μM) and in data set [2] (50 μM) were 1.1 (1.1), 3.9 and 4.7, respectively. Further, the “% reduction in TG” value in data set [3] (3 mg/kg orally for 6 days) stood at 44%.
For the compound `Cc1cccc(Nc2cc(Cl)nc(SCC(=O)O)n2)c1C` [Wyeth 14643, reference compound], the “PPARα luciferase fold activation relative to untreated cells” value in data set [2] (10 μM) was 1.7 and 1.6 and 1.4 and 2.5 and 2.7 and 2.4; in data set [2] (50 μM), 3.4 and 5.0 and 4.2 and 5.2 and 4.1 and 6.1 and 4.6 and 4.0.

Source of the values: patent US20080045580A1, “Novel Isoxazole Compounds Having Ppar Agonist Activity” (DR REDDY'S LABORATORIES LIMITED, priority 2004, published 2008).
